Read-outs that look alike come from different tables or passages of the source.
Key:
Type in all cases: cell-based, human
[1] = system: MDA-MB-231 cells; assay: MTS viability assay, MDA-MB-231 breast cancer cells
Procedure: (§1) FIG. 2A. Effects of compounds 1-11 on the viability of MDA-MB231 cells. MDA-MB-231 cells were cultured in DMEM medium supplemented with 10% FBS. Equal numbers were dispersed into 96-well plates. After 24 h, the cells were incubated with compounds 1-11 (0-30 μM) for 48 h. At the end of the incubation, MTS reagent (20% vol/vol) was added and the plates were incubated for 1-4 h. The OD490 was read with a plate reader. Wells with media but no cells were treated in similar fashion and the values utilized as blank. The results represent the mean±standard deviation of 6 independent determinations.
as §1, with “2K.” for “2A.”, “1, 69-72” for “1-11”, “MDA-MB-231” for “MDA-MB231”, “1, 69-72” for “1-11 (0-30 μM)”
(§2) The cell lines were cultured from frozen stocks originally obtained from ATCC. MDA-MB-231, JIMT-1, DU145, U81, U251 cells were grown in DMEM medium. BT474, A2780s, A2780cp cells were grown in DMEM/F12 medium supplemented with 10% FBS. MiaPaCa2 was cultured in DMEM supplemented with 10% FBS and 2.5% horse serum. PC3 cells were cultured in F12K medium supplemented with 10% FBS. All the media were supplemented with penicillin/streptomycin.
(§3) The effects of the GAELs on the viability of the various epithelial cancer cell lines was determined as previously described. Briefly, equal numbers of the cells were dispersed into 96-well plates. After 24 h, the cells were incubated with the compounds (0-30 μM) for 48 h. At the end of the incubation, MTS reagent (20% vol/vol) was added and the plates were incubated for 1-4 h. The OD490 was read with a plate reader. Wells with media but no cells were treated in similar fashion and the values utilized as blank. The results represent the mean±standard deviation of 6 independent determinations.

[2] = system: DU145 cells; assay: MTS viability assay, DU145 prostate cancer cells
Procedure: as §1, with “2D.” for “2A.”, “DU145” for “MDA-MB231”, “DU145” for “MDA-MB-231”
as §1, with “2H. Effect” for “2A. Effects”, “1, 69-72” for “1-11”, “DU145” for “MDA-MB231”, “DU145” for “MDA-MB-231”, “1, 69-72” for “1-11 (0-30 μM)”
as §2, §3

[3] = system: JIMT-1 cells; assay: MTS viability assay, JIMT-1 breast cancer cells
Procedure: as §1, with “2B.” for “2A.”, “JIMT-1” for “MDA-MB231”, “JIMT-1” for “MDA-MB-231”
as §1, with “2J.” for “2A.”, “1, 69-72” for “1-11”, “JIMT-1” for “MDA-MB231”, “JIMT-1” for “MDA-MB-231”, “1, 69-72” for “1-11 (0-30 μM)”
as §2, §3

[4] = system: MiaPaCa2 cells; assay: MTS viability assay, MiaPaCa2 pancreas cancer cells
Procedure: as §1, with “2F.” for “2A.”, “MiaPaCa2” for “MDA-MB231”, “MiaPaCa2” for “MDA-MB-231”, “FBS and 2.5% horse serum.” for “FBS.”
as §1, with “2I.” for “2A.”, “1, 69-72” for “1-11”, “MiaPaCa2” for “MDA-MB231”, “MiaPaCa2” for “MDA-MB-231”, “FBS and 2.5% horse serum.” for “FBS.”, “1, 69-72” for “1-11 (0-30 μM)”
as §2, §3

[5] = system: PC3 cells; assay: MTS viability assay, PC3 prostate cancer cells; details: 48 h, MTS
Procedure: as §1, with “2E.” for “2A.”, “PC3” for “MDA-MB231”, “PC3” for “MDA-MB-231”, “F12K” for “DMEM”
as §2, §3

[6] = system: BT-474 cells; assay: MTS viability assay, BT-474 breast cancer cells; details: 48 h, MTS
Procedure: as §1, with “2C.” for “2A.”, “BT-474” for “MDA-MB231”, “BT-474” for “MDA-MB-231”, “DMEM/F12” for “DMEM”
as §2, §3

[7] = Table 1A, 48 h, read-out: CC50 values MD 231
[8] = Table 1B, 48 h, read-out: CC90 values MD 231
[9] = Table 1A, 48 h, read-out: CC50 values DU 145
[10] = Table 1B, 48 h, read-out: CC90 values DU 145
[11] = Table 1A, 48 h, read-out: CC50 values JIMT1
[12] = Table 1B, 48 h, read-out: CC90 values JIMT1
[13] = Table 1A, 48 h, read-out: CC50 values MiaPaCa2
[14] = Table 1B, 48 h, read-out: CC90 values MiaPaCa2
[15] = Table 1A, read-out: CC50 values PC3
[16] = Table 1B, read-out: CC90 values PC3
[17] = Table 5, 48 h, read-out: CC50 MDA-MB-231
[18] = Table 5, 48 h, read-out: CC90 MDA-MB-231
[19] = Table 5, 48 h, read-out: CC50 DU-145
[20] = Table 5, 48 h, read-out: CC90 DU-145
[21] = Table 5, 48 h, read-out: CC50 JIMT1
[22] = Table 5, 48 h, read-out: CC90 JIMT1
[23] = Table 5, 48 h, read-out: CC50 Mlapaca2
[24] = Table 5, 48 h, read-out: CC90 Mlapaca2
[25] = Table 1A, read-out: CC50 values BT474
[26] = Table 1B, read-out: CC90 values BT474

Structure (SMILES) | CC50 [1, 7] | CC90 [1, 8] | CC50 [2, 9] | CC90 [2, 10] | CC50 [3, 11] | CC90 [3, 12] | CC50 [4, 13] | CC90 [4, 14] | CC50 [5, 15] | CC90 [5, 16] | CC50 [1, 17] | CC90 [1, 18] | CC50 [2, 19] | CC90 [2, 20] | CC50 [3, 21] | CC90 [3, 22] | CC50 [4, 23] | CC90 [4, 24] | other results
CCCCCCCCCCCCCCCCOC[C@H](CO[C@H]1O[C@H](CN)[C@@H](O)[C@H](O)[C@H]1N1C(=O)c2ccccc2C1=O)OC [Compound 3, 1-O-Hexadecyl-2-O-methyl-3-O-(-2′-N-phthalimido-6′-amino-2′,6′-dideoxy-δ-D-glucopyranosyl)-sn-glycerol] | 20 µM | > 30 µM | > 30 µM | > 30 µM | > 30 µM | > 30 µM | > 30 µM | > 30 µM | 15 µM | 30 µM |  |  |  |  |  |  |  |  | 
CCCCCCCCCCCCCCCCOC[C@H](COC1O[C@H](CNCCCN)[C@@H](O)[C@H](O)[C@H]1N)OC (stereo partly shown) [Compound 74, 1-O-Hexadecyl-2-O-methyl-3-O-[6′-N-(3-aminopropyl)-2′,6′-diamino-2′,6′-dideoxy-glucopyranoside]-sn-glycerol] |  |  |  |  |  |  |  |  |  |  |  |  |  |  |  |  |  |  | CC50 ([1]; Table 6, 48 h, read-out: MB-MDA-231 CC50): 13.5 µM; CC90 ([1]; Table 6, 48 h, read-out: MB-MDA-231 CC90): 19.5 µM; CC50 ([2]; Table 6, 48 h, read-out: DU145 CC50): 16.5 µM; CC90 ([2]; Table 6, 48 h, read-out: DU145 CC90): 20 µM; CC50 ([3]; Table 6, 48 h, read-out: JIMT1 CC50): 13.5 µM; CC90 ([3]; Table 6, 48 h, read-out: JIMT1 CC90): 18.5 µM; CC50 ([4]; Table 6, 48 h, read-out: MiaPaCa2 CC50): 18.5 µM; CC90 ([4]; Table 6, 48 h, read-out: MiaPaCa2 CC90): > 20 µM; CC50 ([5]; Table 6, read-out: PC3 CC50): 12.5 µM; CC90 ([5]; Table 6, read-out: PC3 CC90): 20 µM; CC50 ([6]; Table 6, read-out: BT474 CC50): > 20 µM; CC90 ([6]; Table 6, read-out: BT474 CC90): > 20 µM
CCCCCCCCCCCCCCCCOC[C@H](CO[C@@H]1O[C@@H](CN)[C@H](OCc2ccccc2)[C@@H](O)[C@@H]1N)OC [Compound 72, 1-O-Hexadecyl-2-O-methyl-3-O-(4′-benzyl-2′,6′-diamino-2′,6′-dideoxy-α-L-glucopyranosyl)-sn-glycerol] |  |  |  |  |  |  |  |  |  |  | 4 µM | 4.9 µM | 3.6 µM | 4.9 µM | 2 µM | 3.5 µM | 4.5 µM | 7 µM | 
CCCCCCCCCCCCCCCCOC[C@@H](CN)O[C@H]1O[C@H](CO)[C@@H](O)[C@H](O)[C@H]1N [Compound 7, 1-O-Hexadecyloxy-2R-(2′-amino-2′-deoxy-α-D-glucopyranosyl)-3-amino glycerol] | 12 µM | 17.5 µM | 17.5 µM | 25 µM | 14 µM | 19 µM | 15 µM | 28 µM | 9.5 µM | 17 µM |  |  |  |  |  |  |  |  | CC50 [6, 25]: 25 µM; CC90 [6, 26]: > 30 µM
CCCCCCCCCCCCCCCCOCC(N)CO[C@H]1O[C@H](CO)[C@@H](O)[C@H](O)[C@H]1N (stereo partly drawn) [Compound 8, 1-O-Hexadecyloxy-2S/R-amino-3-(-2′-amino-2′-deoxy-α-D-glucopyranosyl)-glycerol] | 6 µM | 9 µM | 6 µM | 9 µM | 5.5 µM | 7.5 µM | 8.5 µM | 14 µM | 9 µM | 14 µM |  |  |  |  |  |  |  |  | CC50 [6, 25]: 15.5 µM; CC90 [6, 26]: 28 µM
CCCCCCCCCCCCCCCCOC[C@H](CO[C@@H]1O[C@@H](CN)[C@H](O)[C@@H](O)[C@@H]1N)OC [Compound 71, 1-O-Hexadecyl-2-O-methyl-3-O-(2′,6′-diamino-2′,6′-dideoxy-α-L-glucopyranosyl)-sn-glycerol] |  |  |  |  |  |  |  |  |  |  | 5.5 µM | 7.5 µM | 6 µM | 8 µM | 4 µM | 6.5 µM | 6 µM | 15 µM | 
CCCCCCCCCCCCCCCCOC[C@H](CO[C@H]1O[C@@H](CN)[C@H](OCc2ccccc2)[C@@H](O)[C@@H]1N)OC [Compound 70, 1-O-Hexadecyl-2-O-methyl-3-O-(4′-benzyl-2′,6′-diamino-2′,6′-dideoxy-β-L-glucopyranosyl)-sn-glycerol] |  |  |  |  |  |  |  |  |  |  | 4 µM | 4.9 µM | 3.6 µM | 4.9 µM | 2 µM | 3.5 µM | 5 µM | 7.1 µM | 

From patent publication US10806746B2, “Di- and tri-cationic glycosylated antitumor ether lipids, L-gucosylated gaels and rhamnose-linked gaels as cytotoxic agents against epithelial cancer cells and cancer stem cells” (The University of Manitoba, priority 2014, dated 2020)
